Article PMC5490406, “Syntheses of Radioiodinated Pyrimidine-2,4,6-Triones as Potential Agents for Non-Invasive Imaging of Matrix Metalloproteinases” (Pharmaceuticals, 2017)

Experiments:
[1] = target: human active MMP-9 (Homo sapiens, UniProt P14780); test: fluorometric in vitro MMP inhibition assay, MMP-9; type: biochemical
Protocol: (§1) The MMP inhibition potencies of the barbituric acid derivatives 5a, 5b, 6, 9 and 10 were measured in fluorometric in vitro inhibition assays as described previously.
(§2) An aliquot of substrate (10 μL of a 50 μM solution) was then added to 90 μL of the preincubated MMP/inhibitor mixture, and the fluorescence was determined at 37 °C by following product release with time. The fluorescence changes were monitored using a Fusion Universal Microplate Analyzer (Packard Bioscience, Boston, MA, USA) with excitation and emission wavelengths set to 330 and 390 nm, respectively. Reaction rates were measured from the initial 10 min of the reaction profile where product release was linear with time and plotted as a function of inhibitor dose. From the resulting inhibition curves, the IC50 values for each inhibitor were calculated by non-linear regression analysis, performed using the Grace 5.1.8 software (Linux).

[2] = target: T1, human active MMP-2 (Homo sapiens, UniProt P08253); test: fluorometric in vitro MMP inhibition assay, MMP-2; type: biochemical
T1 sequence (P08253 110-660): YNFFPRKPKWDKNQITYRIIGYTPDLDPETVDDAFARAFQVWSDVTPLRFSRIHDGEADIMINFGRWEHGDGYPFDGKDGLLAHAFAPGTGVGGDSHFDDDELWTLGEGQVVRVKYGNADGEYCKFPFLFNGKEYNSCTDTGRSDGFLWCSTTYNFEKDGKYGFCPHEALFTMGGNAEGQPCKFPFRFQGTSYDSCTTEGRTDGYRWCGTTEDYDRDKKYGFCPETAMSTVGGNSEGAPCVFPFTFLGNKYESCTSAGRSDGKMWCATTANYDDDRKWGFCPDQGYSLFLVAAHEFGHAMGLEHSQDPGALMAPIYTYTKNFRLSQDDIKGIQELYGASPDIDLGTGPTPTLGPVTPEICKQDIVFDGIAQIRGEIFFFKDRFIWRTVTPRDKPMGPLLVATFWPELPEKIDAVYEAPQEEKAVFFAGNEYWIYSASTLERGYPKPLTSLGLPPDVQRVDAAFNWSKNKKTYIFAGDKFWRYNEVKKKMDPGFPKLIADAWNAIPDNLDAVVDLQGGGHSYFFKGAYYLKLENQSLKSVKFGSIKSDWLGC
Protocol: as §1, §2

[3] = target: human active MMP-13 (Homo sapiens, UniProt P45452); test: fluorometric in vitro MMP inhibition assay, MMP-13; type: biochemical
Protocol: as §1, §2

[4] = calculated logP/logD (ACD/Chemsketch ACD/Labs 6.00); details: relative to 12
[5] = target: human active MMP-14 (Homo sapiens, UniProt P50281); test: fluorometric in vitro MMP inhibition assay, MMP-14; type: biochemical
Protocol: as §1, §2

[6] = target: human active MMP-8 (Homo sapiens, UniProt P22894); test: fluorometric in vitro MMP inhibition assay, MMP-8; type: biochemical
Sequence of human active MMP-8 (P22894 101-467): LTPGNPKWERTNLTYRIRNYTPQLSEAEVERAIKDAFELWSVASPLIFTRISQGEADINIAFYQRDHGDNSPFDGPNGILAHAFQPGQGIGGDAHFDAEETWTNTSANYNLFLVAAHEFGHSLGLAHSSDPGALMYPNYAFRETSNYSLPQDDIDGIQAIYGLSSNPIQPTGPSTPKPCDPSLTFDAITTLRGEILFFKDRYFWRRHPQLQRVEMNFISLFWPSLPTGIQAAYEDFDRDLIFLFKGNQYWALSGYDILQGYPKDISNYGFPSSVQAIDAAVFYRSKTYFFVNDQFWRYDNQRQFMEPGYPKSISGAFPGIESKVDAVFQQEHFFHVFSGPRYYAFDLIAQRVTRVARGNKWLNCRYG
Protocol: as §1, §2

[7] = IC50 MMP-9, mean ± SD of three assays
[8] = IC50 MMP-2, mean ± SD of three assays
[9] = IC50 MMP-9 (range given jointly for MMP-2 and -9), summary of Table 1
[10] = IC50 MMP-2 (range given jointly for MMP-2 and -9), summary of Table 1

Sequence of human active MMP-9 (P14780 107-707 limits assumed): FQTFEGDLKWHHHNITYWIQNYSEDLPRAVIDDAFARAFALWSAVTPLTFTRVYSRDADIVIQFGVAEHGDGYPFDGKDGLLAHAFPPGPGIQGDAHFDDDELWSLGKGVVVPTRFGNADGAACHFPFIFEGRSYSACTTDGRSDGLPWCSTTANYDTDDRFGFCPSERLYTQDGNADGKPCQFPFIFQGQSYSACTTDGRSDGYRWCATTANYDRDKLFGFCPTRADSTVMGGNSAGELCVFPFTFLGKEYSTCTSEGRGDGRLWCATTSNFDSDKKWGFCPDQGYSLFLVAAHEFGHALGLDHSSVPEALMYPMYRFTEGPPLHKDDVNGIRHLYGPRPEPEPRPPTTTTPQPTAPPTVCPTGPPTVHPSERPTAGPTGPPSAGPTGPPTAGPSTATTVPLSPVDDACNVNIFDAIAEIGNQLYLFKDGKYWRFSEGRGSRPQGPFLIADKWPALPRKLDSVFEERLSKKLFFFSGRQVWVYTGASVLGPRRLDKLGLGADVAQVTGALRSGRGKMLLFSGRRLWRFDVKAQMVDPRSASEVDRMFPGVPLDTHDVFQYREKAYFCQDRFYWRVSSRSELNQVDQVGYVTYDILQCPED

| SMILES | IC50 [1, 7] [nM] | IC50 [2, 8] [nM] | melting point | IC50 [1, 9] [nM] | IC50 [2, 10] [nM] | IC50 [3] [nM] | increased water solubility compared to 12, inferred from clogD shift [4] | IC50 [5] [nM] | IC50 [6] [nM] |
| --- | --- | --- | --- | --- | --- | --- | --- | --- | --- |
| O=C1NC(=O)C(c2ccc(I)cc2)(N2CCN(CCO)CC2)C(=O)N1 [5a, 5-[4-(2-Hydroxyethyl)piperazin-1-yl]-5-(4-iodophenyl)pryrimidine-2,4,6-trione] | 550 ± 180 | 10 ± 3 | 168 to 172 °C | – | – | – | – | – | – |
| O=C(O)CCN1CCN(C2(c3ccc(I)cc3)C(=O)NC(=O)NC2=O)CC1 [5b, 5-[4-(2-Carboxyethyl)piperazin-1-yl]-5-(4-iodophenyl)pyrimidine-2,4,6-trione] | 1600 ± 600 | 1200 ± 340 | 139 to 142 °C | 670 to 1600 | 670 to 1600 | – | – | – | – |
| O=C1NC(=O)C(c2ccc(O)c(I)c2)(N2CCN(CCO)CC2)C(=O)N1 [compound 6, 5-(4-Hydroxy-3-iodophenyl)-5-[4-(2-hydroxyethyl)piperazin-1-yl]pryrimidine-2,4,6-trione] | 1300 ± 320 | 670 ± 210 | 168 to 170 °C (dec.) | 670 to 1600 | 670 to 1600 | – | – | – | – |
| O=C(O)CCN1CCN(C2(c3ccc(Oc4ccc(I)cc4)cc3)C(=O)NC(=O)NC2=O)CC1 [compound 9, 5-[4-(2-Carboxyethyl)piperazin-1-yl]-5-[4-(4-iodophenoxy)phenyl]pyrimidine-2,4,6-trione] | 1.3 ± 0.2 | 29 ± 2 | 236 to 242 °C (dec.) | – | – | 362 ± 24 | approximately 400 fold | 49 | 1170 ± 80 |
| O=C1NC(=O)C(c2ccc(Oc3ccc(I)cc3)cc2)(N2CCN(CCOCCOCCOCCF)CC2)C(=O)N1 [compound 10, 5-(4-(2-(2-(2-(2-Fluoroethoxy)ethoxy)ethoxy)ethyl)piperazin-1-yl)-5-(4-(4-iodophenoxy)phenyl)-pyrimidine-2,4,6-trione] | 17 ± 5 | 23 ± 5 | 176 to 177 °C | – | – | 28 ± 11 | – | – | 146 ± 48 |
